Assay results from patent publication US20230346831A1, “METHODS FOR TREATING […] USING LOW DOSE CARBON MONOXIDE” (priority 2020, published 2023).
Where “and” joins values, the source holds several entries; their conditions need not be identical. Equal values may be shown once.

Tested on: MCF7/TGL cells
Experiment: metabolomic assay (polar metabolite profiling, mass spectrometry)
Assay type: cell-based, human
Settings: MCF7/TGL cells treated with CO, replicates CO 1-3
Method: Extraction and analysis were performed with the same parameters as the method disclosed in FIG. 7.
7 × 10^6 cells were seeded in 10-cm cell culture plates with DMEM containing 10% FBS, 0.2 mM L-glutamine and 1% penicillin/streptomycin. Additionally, MCF7/TGL/pQ was cultured in media containing 0.5 µgml^-1 puromycin and 25 mM HEPES. After 16 hours of incubation, metabolites were extracted from the cells using 80% methanol. The remaining steps were carried out by Weill Cornell Medicine Proteomics and Metabolomics Core Facility according to M. D. Goncalves et al., Proc Natl Acad Sci USA 115, E743-E752 (2018). All data analyses were done using MetaboAnalyst 4.0 (www.metaboanalyst.ca/).
To investigate whether 250 ppm CO mimics hypoxia, the HiF1α protein levels were examined in CO treated MCF7/TGL and MDA-MB-231/TGL cells. […] To determine whether 250 ppm CO affects metabolism, polar metabolites were profiled using two breast cancer cell lines, MCF7/TGL and MDA-MB-231/TGL (FIGS. 7-9).

## [C-]#[O+] [CO, Carbon monoxide]
HMDB00005
  Peak Height 2-Ketobutyric acid: 4,031,318 and 4,391,029 and 5,247,754
HMDB00012
  Peak Height Deoxyuridine: 4,052 and 3,614 and 4,205
HMDB00033
  Peak Height Carnosine: 2,611,797 and 2,457,728 and 2,635,558
HMDB00034
  Peak Height Adenine: 319,396 and 405,129 and 608,706
HMDB00038
  Peak Height Dihydrobiopterin: 37,904,750 and 45,778,470 and 54,551,140
HMDB00043
  Peak Height Betaine: 211,641,600 and 205,281,000 and 256,902,700
HMDB00044
  Peak Height Ascorbic acid: 1,179,857 and 2,029,092 and 5,154,497
HMDB00045
  Peak Height Adenosine monophosphate: 595,508 and 473,948 and 497,428
HMDB00050
  Peak Height Adenosine: 14,622 and 14,037 and 23,296
HMDB00052
  Peak Height Argininosuccinic acid: 180,070 and 286,271 and 472,100
HMDB00062
  Peak Height L-Carnitine: 275,929,100 and 289,061,800 and 291,180,600
HMDB00064
  Peak Height Creatine: 394,311,900 and 394,104,400 and 478,205,800
HMDB00072
  Peak Height cis-Aconitic acid: 11,654,680 and 13,826,410 and 17,813,720
HMDB00082
  Peak Height Cytidine triphosphate: 248,084 and 155,802 and 221,285
HMDB00086
  Peak Height Glycerophosphocholine: 299,915,900 and 348,438,900 and 459,259,100
HMDB00089
  Peak Height Cytidine: 104,165 and 69,105 and 173,745
HMDB00092
  Peak Height Dimethylglycine: 6,279,555 and 7,567,884 and 7,137,536
HMDB00094
  Peak Height Citric acid: 83,266,830 and 83,863,100 and 100,258,700
HMDB00095
  Peak Height Cytidine monophosphate: 93,671 and 115,860 and 141,423
HMDB00097
  Peak Height Choline: 183,705,300 and 191,547,400 and 211,305,800
HMDB00099
  Peak Height L-Cystathionine: 13,082,840 and 16,491,010 and 22,978,520
HMDB00122
  Peak Height D-Glucose: 24,253,400 and 27,009,740 and 49,287,950
HMDB00123
  Peak Height Glycine: 97,069,490 and 60,912,580 and 81,769,040
HMDB00124
  Peak Height Fructose 6-phosphate: 689,466 and 869,013 and 1,084,547
HMDB00125
  Peak Height Glutathione: 166,253,500 and 185,818,800 and 224,175,500
HMDB00126
  Peak Height Glycerol3-phosphate: 242,288 and 358,077 and 520,107
HMDB00127
  Peak Height D-Glucuronic acid: 193,639 and 229,627 and 245,391
HMDB00134
  Peak Height Fumaric acid: 5,149,166 and 6,086,688 and 8,204,115
HMDB00148
  Peak Height L-Glutamic acid: 344,240,500 and 392,276,300 and 563,702,200
HMDB00157
  Peak Height Hypoxanthine: 207,108 and 78,064 and 86,812
HMDB00158
  Peak Height L-Tyrosine: 58,933,980 and 62,662,290 and 101,701,400
HMDB00159
  Peak Height L-Phenylalanine: 287,943,500 and 304,931,600 and 425,257,300
HMDB00161
  Peak Height L-Alanine: 24,164,680 and 26,271,210 and 37,606,940
HMDB00162
  Peak Height L-Proline: 456,504,200 and 470,321,900 and 561,265,500
HMDB00167
  Peak Height L-Threonine: 103,403,600 and 114,367,100 and 144,573,600
HMDB00168
  Peak Height L-Asparagine: 42,196,450 and 47,225,620 and 55,751,170
HMDB00172
  Peak Height L-Isoleucine: 339,480,000 and 333,493,200 and 481,854,600
HMDB00175
  Peak Height Inosinic acid: 22,764 and 28,902 and 46,283
HMDB00177
  Peak Height L-Histidine: 295,632,700 and 322,360,800 and 456,145,200
HMDB00182
  Peak Height L-Lysine: 41,138,540 and 40,717,620 and 74,426,720
HMDB00186
  Peak Height Alpha-Lactose: 261,525 and 290,474 and 303,327
HMDB00187
  Peak Height L-Serine: 22,682,210 and 24,881,370 and 27,375,240
HMDB00190
  Peak Height L-Lactic acid: 135,248,600 and 168,348,200 and 288,458,500
HMDB00191
  Peak Height L-Aspartic acid: 12,945,220 and 18,829,880 and 30,552,150
HMDB00201
  Peak Height L-Acetylcarnitine: 191,662,400 and 208,376,400 and 217,883,700
HMDB00206
  Peak Height N6-Acetyl-L-lysine: 126,221 and 143,548 and 210,190
HMDB00208
  Peak Height Oxoglutaric acid: 24,674,800 and 27,743,170 and 32,411,680
HMDB00210
  Peak Height Pantothenic acid: 49,604,040 and 57,015,540 and 93,443,310
HMDB00211
  Peak Height Myoinositol: 1,493,285 and 1,572,114 and 2,893,583
HMDB00214
  Peak Height Ornithine: 3,323,027 and 3,678,113 and 4,669,739
HMDB00217
  Peak Height NADP: 35,994 and 44,669 and 56,121
HMDB00226
  Peak Height Orotic acid: 107,743 and 166,715
HMDB00235
  Peak Height Thiamine: 13,320,550 and 15,145,370 and 21,979,980
HMDB00243
  Peak Height Pyruvic acid: 6,830,386 and 7,616,124 and 9,628,515
HMDB00244
  Peak Height Riboflavin: 8,515 and 36,944
HMDB00251
  Peak Height Taurine: 213,761,300 and 213,696,600 and 188,154,600
HMDB00254
  Peak Height Succinic acid: 3,099,054 and 3,989,967 and 6,160,312
HMDB00262
  Peak Height Thymine: 7,867,191 and 9,149,847 and 12,133,270
HMDB00263
  Peak Height Phosphoenolpyruvic acid: 3,181,575 and 5,081,852 and 6,959,276
HMDB00267
  Peak Height Pyroglutamic acid: 70,921,790 and 82,143,660 and 125,886,000
HMDB00273
  Peak Height Thymidine: 18,849 and 10,836 and 11,271
HMDB00285
  Peak Height Uridine triphosphate: 972,321 and 740,370 and 1,159,635
HMDB00286
  Peak Height Uridine diphosphate glucose: 3,510,195 and 3,063,631 and 4,862,560
HMDB00288
  Peak Height Uridine 5′-monophosphate: 35,559 and 34,351 and 45,597
HMDB00289
  Peak Height Uric acid: 2,364,329 and 2,512,157 and 4,422,182
HMDB00290
  Peak Height Uridine diphosphate-N-acetylglucosamine: 38,715,250 and 42,157,110 and 45,820,290
HMDB00292
  Peak Height Xanthine: 3,106,304 and 2,715,740 and 5,495,149
HMDB00295
  Peak Height Uridine 5′-diphosphate: 297,075 and 234,752 and 314,015
HMDB00296
  Peak Height Uridine: 51,402 and 29,724 and 61,581
HMDB00300
  Peak Height Uracil: 621,176 and 684,209 and 956,261
HMDB00301
  Peak Height Urocanicacid: 330,874 and 577,556 and 198,149
HMDB00355
  Peak Height 3-Hydroxymethylglutaric acid: 5,766,106 and 4,010,368 and 3,996,699
HMDB00462
  Peak Height Allantoin: 1,483,552 and 1,936,773 and 3,316,178
HMDB00482
  Peak Height Caprylic acid: 3,978,947 and 2,718,335 and 2,586,172
HMDB00510
  Peak Height Aminoadipic acid: 5,713,433 and 5,346,300 and 7,560,774
HMDB00517
  Peak Height L-Arginine: 64,328,130 and 65,745,300 and 95,595,630
HMDB00538
  Peak Height Adenosine triphosphate: 1,853,382 and 1,283,500 and 2,002,755
HMDB00562
  Peak Height Creatinine: 20,992,210 and 21,746,470 and 37,545,350
HMDB00565
  Peak Height Galactonic acid: 8,090,935 and 11,406,370 and 14,258,950
HMDB00568
  Peak Height D-Arabitol: 250,315 and 263,626 and 418,856
HMDB00606
  Peak Height D-2-Hydroxyglutaric acid: 460,608 and 570,887 and 905,587
HMDB00625
  Peak Height Gluconic acid: 6,277,480 and 8,930,573 and 14,396,540
